Laboratory results as given in patent EP0148431A1, “Benzimidazoles, their preparation, and medicaments containing these compounds” (Dr. Karl Thomae GmbH, priority 1983, dated 1985).
Like-named read-outs stand apart in the source and are kept apart here.

Test system: narkotisierten Katze
Conditions: anaesthetised cats (pentobarbital sodium 40 mg/kg i.p.), mean of at least 3 cats
Experimental: Beispielsweise wurden die Verbindungen • A = 2-(2-Methoxy-4-methylsulfonyl-phenyl)-5-cyano-benzimidazol und • B = 2-(2-Methoxy-4-propargyloxy-phenyl)-5-cyano-benzimidazol auf ihre biologischen Eigenschaften wie folgt untersucht: • Bestimmung der Blutdruckwirkung und der positiv inotropen Wirkung an der narkotisierten Katze
Die Untersuchungen wurden an Katzen durchgeführt, die mit Pentobarbital-Natrium (40 mg/kg i.p.) narkotisiert waren. Die Tiere atmeten spontan. Der arterielle Blutdruck wurde in der Aorta abdominalis mit einem Statham-Druckwandler (P 23 Dc) gemessen. Für die Erfassung der positiv inotropen Wirkung wurde mit einem Kathetertipmanometer (Millar PC-350 A) der Druck in der linken Herzkammer gemessen. Daraus wurde der Kontraktilitätsparameter d^p/dtmax mittels eines Analogdifferenzierers gewonnen. Die zu untersuchenden Substanzen wurden in eine Vena femoralis injiziert. Als Lösungsmittel diente Polydiol 200. Jede Substanz wurde an mindestens 3 Katzen geprüft.

| Compound | Zunahme von dp/dtmax in % (0,2 mg/kg i.v.) [%] | Zunahme von dp/dtmax in % (0,6 mg/kg i.v.) [%] | Zunahme von dp/dtmax in % (2,0 mg/kg i.v.) [%] |
| --- | --- | --- | --- |
| C#CCOc1ccc(-c2nc3ccc(C#N)cc3[nH]2)c(OC)c1 [B, 2-(2-Methoxy-4-propargyloxy-phenyl)-5-cyano-benzimidazol] | 33 | 48 | 85 |
| COc1cc(S(C)(=O)=O)ccc1-c1nc2ccc(C#N)cc2[nH]1 [A, 2-(2-Methoxy-4-methylsulfonyl-phenyl)-5-cyano-benzimidazol] | 51 | 96 | 79 |
